Measured values reported in ChEMBL document CHEMBL1201862, “PubChem BioAssay data set” (2004).
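A five-concentration, 48-hour dose response in 96-well plates underlies each endpoint, interpolated linearly between surrounding concentrations. The concentration for 50% growth inhibition is given as GI50.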 Calls of active or inactive are those of the source. Cut-off read from the data, not from the text of the source: active = GI50 up to about 1.1 µM and inactive = higher.

Tests used:
Assay in all cases: growth of human tumour cells (NCI), 48 h
[1] = tested on: LOX IMVI
[2] = tested on: SW-620
[3] = tested on: DU-145
[4] = tested on: SR
[5] = tested on: A549
[6] = tested on: OVCAR-5
[7] = tested on: NCI-H23
[8] = tested on: OVCAR-4
[9] = tested on: CCRF-CEM
[10] = tested on: ACHN
[11] = tested on: HCC 2998
[12] = tested on: UACC-257
[13] = tested on: NCI-H522
[14] = tested on: U-251
[15] = tested on: MOLT-4
[16] = tested on: BT-549
[17] = tested on: HCT-116
[18] = tested on: CAKI-1

Measured: GI50

O=C(O)c1cc(/C=C/c2cc(O)ccc2O)ccc1O
inactive: [1] > 10 µM | [2] > 10 µM | [3] > 10 µM | [4] > 10 µM | [5] > 10 µM | [6] > 10 µM | [7] > 10 µM | [8] > 10 µM | [9] > 10 µM | [10] > 10 µM | [11] > 10 µM | [12] > 10 µM | [13] > 10 µM | [14] > 10 µM | [15] > 10 µM | [16] > 10 µM

CCC[C@H]1O[C@@H]2CC(=O)O[C@@H]2C2=C1C(=O)C=CC2=O
inactive: [17] 18 µM | [1] 21 µM | [2] 11.2 µM | [4] 16.7 µM | [5] 32.6 µM | [6] 19.7 µM | [7] 13.6 µM | [8] 16.3 µM | [9] 3.92 µM | [10] 13.1 µM | [18] 19.2 µM | [11] > 43.1 µM | [12] 18.9 µM | [13] 2.2 µM | [14] > 39.4 µM | [15] 3.32 µM

COc1ccc(OC)c(NC(=O)C(=O)NNC(=O)c2sc(NNC(C)=O)nc2C)c1
inactive: [17] 28.6 µM | [1] 26.2 µM | [2] 22.6 µM | [4] 32.1 µM | [5] 31.2 µM | [6] 72.4 µM | [7] 21.8 µM | [8] 26.3 µM | [9] 16.9 µM | [10] 29.2 µM | [18] 41.3 µM | [11] 45.1 µM | [12] 23.6 µM | [13] 18.2 µM | [14] 36.6 µM | [15] 18.7 µM

C/C=C1\CNC1C(=O)O (configuration not stated)
inactive: [17] > 100 µM | [1] > 100 µM | [2] > 100 µM | [5] > 100 µM | [6] > 100 µM | [7] > 100 µM | [8] > 100 µM | [9] > 100 µM | [10] > 100 µM | [18] > 100 µM | [11] > 100 µM | [12] > 100 µM | [16] > 100 µM

COc1cccc(N2C(=O)[C@H]3CC(C)c4c([nH]c5ccccc45)[C@H]3C2=O)c1 (some centres not stated)
inactive: [1] 50.6 µM | [2] > 10 µM | [5] 41.3 µM | [7] 45.7 µM | [9] 64.4 µM | [18] 39.6 µM | [11] > 100 µM | [12] 42.9 µM | [13] 24.9 µM | [14] 38.5 µM | [15] 74.1 µM

O=C1Nc2c(Cl)cc(Cl)cc2/C1=N/N=C/c1ccco1
inactive: [17] 33 µM | [1] 17.8 µM | [2] 37 µM | [4] 24.8 µM | [5] 33.4 µM | [6] 61 µM | [7] 25 µM | [8] 49.3 µM | [9] 29 µM | [10] 34.1 µM | [18] 24.3 µM | [11] 37.3 µM | [12] 44 µM | [14] 27.7 µM | [15] 27.2 µM | [16] 22.2 µM

O=C(O)c1cc(=O)c2cc(C(=O)c3cccs3)c(Cl)c(Cl)c2o1
inactive: [2] > 100 µM | [4] > 100 µM | [5] > 100 µM | [6] > 100 µM | [7] > 100 µM | [8] > 100 µM | [9] > 100 µM | [10] > 100 µM | [18] > 100 µM | [11] > 100 µM | [12] > 100 µM | [13] > 100 µM | [14] > 100 µM | [15] > 100 µM
